Patent US20040018210A1, “Cholesterol-lowering agent” (priority 2001, published 2004)

System: T9A4 human hepatic cells
Assay: In vitro analysis of the hypocholesterolaemic effect: de novo synthesis of cholesterol measured by incorporation of C14-acetate
Assay type: cell-based
Settings: main purified oxylanosterol molecules
Procedure: In the present context, the hypocholesterolaemic effect of the present product is evaluated in a qualitative manner on the model of T9A4 human hepatic cells cultured in vitro. Although it is known that such results cannot be transferred directly to man in vivo, they nevertheless provide useful indications. The hypocholesterolaemic effect is evaluated by measurement of the de novo synthesis of cholesterol on human hepatic cells in culture by measuring the incorporation of C^14-acetate. A means of evaluation of this de novo synthesis is described in a method presented below.
T9A4 human hepatic cells are grown on LCM medium (Biofluids, Rockville, Md.) at 37° C. under 3.5% CO2. The cells are seeded in 24-well culture boxes and incubated to confluence with 1 mM C14-acetate (1 mCi/mol, Amersham) for 20 hours in the absence (control) or in the presence of the extract rich in oxygenated derivatives of lanosterol obtained from fungi and/or purified fractions, dissolved in methanol.
A lipid extraction is carried out by incubation in a hexane:isopropanol (3:2) mixtures for 30 minutes at ambient temperature. The extract is then dried under nitrogen and then redissolved in hexane and subjected to thin layer high performance chromatography (Merck, Darmstadt, Germany) with a hexane:diethyl ether:acetic acid (75:25:1) mixture as the solvent. The cholesterol neosynthesis is determined by measuring the incorporation of C^14-acetate within the cholesterol with the aid of an imager (Camberra Packard, Zurich, Switzerland) and is expressed in % of the control.
ID50 represents the dose which inhibits the cholesterol synthesis by 50%. It can be seen that the various extracts have a considerable hypocholesterolaemic activity.

SMILES | ID50 [μq/ml]
C/C(=C\CC[C@@H](C)[C@H]1CC[C@@]2(C)C3=CC[C@H]4C(C)(C)[C@@H](O)CC[C@]4(C)C3=CC[C@]12C)CO [Ganoderol B] | 10
C/C(=C\CC[C@@H](C)[C@H]1CC[C@@]2(C)C3=CC[C@H]4C(C)(C)[C@@H](O)CC[C@]4(C)C3=CC[C@]12C)C(=O)O [Ganoderic acid Y] | 0.5
C/C(C=O)=C\CC[C@@H](C)[C@H]1CC[C@@]2(C)C3=CC[C@H]4C(C)(C)C(=O)CC[C@]4(C)C3=CC[C@]12C [Ganoderal A] | 7
C/C(=C\CC[C@@H](C)[C@H]1CC[C@@]2(C)C3=CC[C@H]4C(C)(C)C(=O)CC[C@]4(C)C3=CC[C@]12C)CO [Ganoderol A] | 1
